These molecules were tested against T1, human mGlu2 receptor (Homo sapiens, UniProt Q14416) (assay: FLIPR intracellular Ca2+ assay, potentiation of glutamate response in HEK293 clone expressing mGlu2 receptor, rGLAST and Galpha16). Settings: 1 μM glutamate added ten minutes after test compound, HEK293 cells with human mGlu2, rGLAST, Galpha16, read-out: EC50 values of potentiation effect to glutamate.
T1 construct: expressed in transfected cells; host or cells: HEK293
T1 sequence (Q14416 19-872): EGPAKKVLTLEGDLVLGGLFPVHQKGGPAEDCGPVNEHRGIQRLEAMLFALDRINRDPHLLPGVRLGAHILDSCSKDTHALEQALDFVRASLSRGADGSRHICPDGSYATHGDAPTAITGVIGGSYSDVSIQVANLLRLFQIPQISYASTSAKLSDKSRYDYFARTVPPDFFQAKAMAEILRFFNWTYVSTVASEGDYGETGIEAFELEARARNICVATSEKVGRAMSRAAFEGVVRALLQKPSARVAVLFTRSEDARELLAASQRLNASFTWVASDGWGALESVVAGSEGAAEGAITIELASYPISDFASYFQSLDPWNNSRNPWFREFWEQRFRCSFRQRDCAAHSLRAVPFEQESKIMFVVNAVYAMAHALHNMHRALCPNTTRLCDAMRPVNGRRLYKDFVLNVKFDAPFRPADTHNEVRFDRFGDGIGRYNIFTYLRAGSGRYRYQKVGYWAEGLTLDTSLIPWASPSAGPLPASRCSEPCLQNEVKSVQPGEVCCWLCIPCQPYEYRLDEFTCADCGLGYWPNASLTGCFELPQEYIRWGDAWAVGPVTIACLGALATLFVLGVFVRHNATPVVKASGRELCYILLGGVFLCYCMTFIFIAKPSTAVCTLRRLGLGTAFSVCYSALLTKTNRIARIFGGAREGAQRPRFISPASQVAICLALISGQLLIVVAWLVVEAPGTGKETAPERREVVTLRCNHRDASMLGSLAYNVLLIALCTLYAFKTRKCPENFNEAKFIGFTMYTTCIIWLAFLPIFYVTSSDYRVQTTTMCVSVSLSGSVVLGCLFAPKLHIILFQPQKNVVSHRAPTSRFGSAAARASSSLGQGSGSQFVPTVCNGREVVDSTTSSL
Assay type: cell-based
Outline: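 HEK293 cells stably expressing human mGlu2, rat GLAST and Gα16 were loaded with 2 µM Fluo-4 AM and intracellular Ca2+ read by FLIPR. Compound added alone (agonism), then with submaximal glutamate (e.g. 1 µM; potentiation). Background-subtracted peaks normalized to 100 µM glutamate response; EC50 from four-parameter fit.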
Work on `CCC(CC)Oc1cccc(N(Cc2c[nH]nc2-c2ccc(C(F)(F)F)cc2)S(=O)(=O)CC(F)(F)F)c1` [Example 454, 2,2,2-Trifluoro-ethanesulfonic acid [3-(1-ethyl-propoxy)-phenyl]-[3-(4-trifluoromethyl-phenyl)-1H-pyrazol-4-ylmethyl]-amide] yielded an EC50 of 1000 to 10000 nM.
`CCCC(C)Oc1cccc(N(Cc2c[nH]nc2-c2ccc(C(F)(F)F)cc2)S(=O)(=O)CC(F)(F)F)c1` (stereo not drawn) [Example 455, 2,2,2-Trifluoro-ethanesulfonic acid [3-(1-methyl-butoxy)-phenyl]-[3-(4-trifluoromethyl-phenyl)-1H-pyrazol-4-ylmethyl]-amide] showed an EC50 of 1000 to 10000 nM.
`CCC(C)Oc1cccc(N(Cc2c[nH]nc2-c2ccc(C(F)(F)F)cc2)S(=O)(=O)CC(F)(F)F)c1` (stereo not drawn) [Example 456, 2,2,2-Trifluoro-ethanesulfonic acid (3-sec-butoxy-phenyl)-[3-(4-trifluoromethyl-phenyl)-1H-pyrazol-4-ylmethyl]-amide] showed an EC50 of 1000 to 10000 nM.
`CCC(C)COc1cccc(N(Cc2c[nH]nc2-c2ccc(C(F)(F)F)cc2)S(=O)(=O)CC(F)(F)F)c1` (stereo not drawn) [Example 457, 2,2,2-Trifluoro-ethanesulfonic acid [3-(2-methyl-butoxy)-phenyl]-[3-(4-trifluoromethyl-phenyl)-1H-pyrazol-4-ylmethyl]-amide] showed an EC50 of 1000 to 10000 nM.
For `CC(C)(C)c1n[nH]cc1CN(c1cccc(OC2CCCC2)c1)S(=O)(=O)CC(F)(F)F` [Example 458, 2,2,2-Trifluoro-ethanesulfonic acid (3-tert-butyl-1H-pyrazol-4-ylmethyl)-(3-cyclopentyloxy-phenyl)-amide], the EC50 was 1000 to 10000 nM.
With `CCCC(=O)c1ccc(NCc2c[nH]nc2C)cc1` [Example 475, 1-{4-[(3-Methyl-1H-pyrazol-4-ylmethyl)-amino]-phenyl}-butan-1-one] the EC50 was 1000 to 10000 nM.
With `CCCC(=O)c1ccc(NCc2c[nH]nc2CCC)cc1` [Example 476, 1-{4-[(3-Propyl-1H-pyrazol-4-ylmethyl)-amino]-phenyl}-butan-1-one] the EC50 was 1000 to 10000 nM.
In the case of `CCCC(=O)c1ccc(NCc2c[nH]nc2C(C)C)cc1` [Example 477, 1-{4-[(3-Isopropyl-1H-pyrazol-4-ylmethyl)-amino]-phenyl}-butan-1-one], the EC50 is reported as 1000 to 10000 nM.
`CCCC(=O)c1ccc(NCc2c[nH]nc2CC)cc1` [Example 478, 1-{4-[(3-Ethyl-1H-pyrazol-4-ylmethyl)-amino]-phenyl}-butan-1-one] was tested, and the EC50 was 1000 to 10000 nM.
For `CC(=O)c1ccc(OCc2c[nH]nc2-c2ccc(C(F)(F)F)cc2)cc1` [Example 483, 1-{4-[3-(4-Trifluoromethyl-phenyl)-1H-pyrazol-4-ylmethoxy]-phenyl}-ethanone], the EC50 was 1000 to 10000 nM.
Molecule `CC(=O)c1ccc(OCc2c[nH]nc2-c2ccc(C(F)(F)F)cc2)cc1F` [Example 485, 1-{2-Fluoro-4-[3-(4-trifluoromethyl-phenyl)-1H-pyrazol-4-ylmethoxy]-phenyl}-ethanone] has an EC50 of 1000 to 10000 nM.
In the case of `CC(=O)c1ccc(OCc2c[nH]nc2-c2ccc(C(F)(F)F)cc2)cc1C` [Example 487, 1-{2-Methyl-4-[3-(4-trifluoromethyl-phenyl)-1H-pyrazol-4-ylmethoxy]-phenyl}-ethanone], the EC50 is reported as 1000 to 10000 nM.
`CC(=O)c1ccc(OCc2c[nH]nc2-c2ccc(C(F)(F)F)cc2)c(C)c1` [Example 488, 1-{3-Methyl-4-[3-(4-trifluoromethyl-phenyl)-1H-pyrazol-4-ylmethoxy]-phenyl}-ethanone] showed an EC50 of 1000 to 10000 nM.
Molecule `CCC(=O)c1ccc(OCc2c[nH]nc2-c2ccc(C(F)(F)F)cc2)cc1` [Example 489, 1-{4-[3-(4-Trifluoromethyl-phenyl)-1H-pyrazol-4-ylmethoxy]-phenyl}-propan-1-one] has an EC50 of less than 1000 nM.
With `CCCCC(=O)c1ccc(OCc2c[nH]nc2-c2ccc(C(F)(F)F)cc2)cc1` [Example 490, 1-{4-[3-(4-Trifluoromethyl-phenyl)-1H-pyrazol-4-ylmethoxy]-phenyl}-pentan-1-one] the EC50 was less than 1000 nM.
`CCCCCC(=O)c1ccc(OCc2c[nH]nc2-c2ccc(C(F)(F)F)cc2)cc1` [Example 491, 1-{4-[3-(4-Trifluoromethyl-phenyl)-1H-pyrazol-4-ylmethoxy]-phenyl}-hexan-1-one] gave an EC50 of less than 1000 nM.
In the case of `CCCC(=O)c1ccc(SCc2c[nH]nc2-c2ccc(C(F)(F)F)cc2)cc1` [Example 492, 1-{4-[3-(4-Trifluoromethyl-phenyl)-1H-pyrazol-4-ylmethylsulfanyl]-phenyl}-butan-1-one], the EC50 is reported as 1000 to 10000 nM.
`CCCC(=O)c1ccc(OCc2c[nH]nc2-c2ccc(C(F)(F)F)cc2)cc1` [Example 494, 1-{4-[3-(4-Trifluoromethyl-phenyl)-1H-pyrazol-4-ylmethoxy]-phenyl}-butan-1-one] showed an EC50 of less than 1000 nM.
With `CCCC(=O)c1ccc(OCc2c[nH]nc2-c2ccc(F)cc2)cc1` [Example 495, 1-{4-[3-(4-Fluorophenyl)-1H-pyrazol-4-ylmethoxy]-phenyl}-butan-1-one] the EC50 was less than 1000 nM.
`CCCC(=O)c1ccc(OCc2c[nH]nc2-c2ccc(Cl)cc2)cc1` [Example 496, 1-{4-[3-(4-Chloro-phenyl)-1H-pyrazol-4-ylmethoxy]-phenyl}-butan-1-one] showed an EC50 of less than 1000 nM.
In the case of `CCCC(=O)c1ccc(OCc2c[nH]nc2-c2cccc(F)c2)cc1` [Example 497, 1-{4-[3-(3-Fluorophenyl)-1H-pyrazol-4-ylmethoxy]-phenyl}-butan-1-one], the EC50 is reported as less than 1000 nM.
With `CCCC(=O)c1ccc(OCc2c[nH]nc2-c2cccc(C(F)(F)F)c2)cc1` [Example 498, 1-{4-[3-(3-Trifluoromethyl-phenyl)-1H-pyrazol-4-ylmethoxy]-phenyl}-butan-1-one] the EC50 was less than 1000 nM.
Molecule `CCCC(=O)c1ccc(OCc2c[nH]nc2-c2ccccc2)cc1` [Example 499, 1-[4-(3-Phenyl-1H-pyrazol-4-ylmethoxy)-phenyl]-butan-1-one] has an EC50 of less than 1000 nM.
In the case of `CC(=O)c1ccc(NCc2c[nH]nc2-c2ccc(C(F)(F)F)cc2)cc1` [Example 501, 1-(4-{[3-(4-Trifluoromethyl-phenyl)-1H-pyrazol-4-ylmethyl]-amino}-phenyl)-ethanone], the EC50 is reported as 1000 to 10000 nM.
For `CCCC(=O)c1cccc(NCc2c[nH]nc2-c2ccc(C(F)(F)F)cc2)c1` [Example 503, 1-(3-{[3-(4-Trifluoromethyl-phenyl)-1H-pyrazol-4-ylmethyl]-amino}-phenyl)-butan-1-one], the EC50 was 1000 to 10000 nM.
`O=C(c1ccccc1)c1ccc(NCc2c[nH]nc2-c2ccc(C(F)(F)F)cc2)cc1` [Example 504, Phenyl-(4-{[3-(4-trifluoromethyl-phenyl)-1H-pyrazol-4-ylmethyl]-amino}-phenyl)-methanone] gave an EC50 of 1000 to 10000 nM.
`O=C(c1ccc(NCc2c[nH]nc2-c2ccc(C(F)(F)F)cc2)cc1)C(F)(F)F` [Example 506, 2,2,2-Trifluoro-1-(4-{[3-(4-trifluoromethyl-phenyl)-1H-pyrazol-4-ylmethyl]-amino}-phenyl)-ethanone] showed an EC50 of 1000 to 10000 nM.
`CC(=O)c1ccc2c(c1)CCN2Cc1c[nH]nc1-c1ccc(C(F)(F)F)cc1` [Example 507, 1-{1-[3-(4-Trifluoromethyl-phenyl)-1H-pyrazol-4-ylmethyl]2,3-dihydro1H-indol-5-yl}-ethanone] gave an EC50 of 1000 to 10000 nM.
In the case of `CCCC(=O)c1ccc(NCc2c[nH]nc2-c2ccc(F)cc2)cc1` [Example 508, 1-(4-{[3-(4-Fluorophenyl)-1H-pyrazol-4-ylmethyl]-amino}-phenyl)-butan-1-one], the EC50 is reported as less than 1000 nM.
With `CCCC(=O)c1ccc(NCc2c[nH]nc2-c2cccc(Cl)c2)cc1` [Example 509, 1-(4-{[3-(3-Chloro-phenyl)-1H-pyrazol-4-ylmethyl]-amino}-phenyl)-butan-1-one] the EC50 was less than 1000 nM.
Molecule `CCCC(=O)c1ccc(NCc2c[nH]nc2-c2ccccc2Cl)cc1` [Example 510, 1-(4-{[3-(2-Chloro-phenyl)-1H-pyrazol-4-ylmethyl]-amino}-phenyl)-butan-1-one] has an EC50 of less than 1000 nM.
For `CCCC(=O)c1ccc(NCc2c[nH]nc2-c2cccc(F)c2)cc1` [Example 511, 1-(4-{[3-(3-Fluorophenyl)-1H-pyrazol-4-ylmethyl]-amino}-phenyl)-butan-1-one], the EC50 was less than 1000 nM.
For `CCCC(=O)c1ccc(NCc2n[nH]cc2-c2ccc(OC)cc2)cc1` [Example 513, 1-(4-{[4-(4-Methoxy-phenyl)-1H-pyrazol-3-ylmethyl]-amino}-phenyl)-butan-1-one], the EC50 was less than 1000 nM.
With `CCCC(=O)c1cccc(NCc2n[nH]cc2-c2ccc(OC)cc2)c1` [Example 514, 1-(3-{[4-(4-Methoxy-phenyl)-1H-pyrazol-3-ylmethyl]-amino}-phenyl)-butan-1-one] the EC50 was 1000 to 10000 nM.
For `CCCC(=O)c1cccc(NCc2n[nH]cc2-c2ccc(CC)cc2)c1` [Example 515, 1-(3-{[4-(4-Ethyl-phenyl)-1H-pyrazol-3-ylmethyl]-amino}-phenyl)-butan-1-one], the EC50 was 1000 to 10000 nM.
For `CCCC(=O)c1ccc(NCc2n[nH]cc2-c2ccc(CC)cc2)cc1` [Example 516, 1-(4-{[4-(4-Ethyl-phenyl)-1H-pyrazol-3-ylmethyl]-amino}-phenyl)-butan-1-one], the EC50 was less than 1000 nM.
`CCCC(=O)c1ccc(NCc2n[nH]cc2-c2ccc(C(F)(F)F)cc2)cc1` [Example 517, 1-(4-{[4-(4-Trifluoromethyl-phenyl)-1H-pyrazol-3-ylmethyl]-amino}-phenyl)-butan-1-one] gave an EC50 of less than 1000 nM.
`CCCC(=O)c1ccc(NCc2n[nH]cc2-c2ccc(Cl)cc2)cc1` [Example 518, 1-(4-{[4-(4-Chloro-phenyl)-1H-pyrazol-3-ylmethyl]-amino}-phenyl)-butan-1-one] was tested, and the EC50 was 1000 to 10000 nM.
`CCCC(=O)c1ccc(NCc2n[nH]nc2-c2ccccc2)cc1` [Example 519] was tested, and the EC50 was 1000 to 10000 nM.
`CCCC(=O)c1ccc(OCc2n[nH]cc2-c2ccc(OC)cc2)cc1` [Example 520, 1-{4-[4-(4-Methoxy-phenyl)-1H-pyrazol-3-ylmethoxy]-phenyl}-butan-1-one] gave an EC50 of less than 1000 nM.
`CCCC(=O)c1ccc(OCc2n[nH]cc2-c2ccc(CC)cc2)cc1` [Example 521, 1-{4-[4-(4-Ethyl-phenyl)-1H-pyrazol-3-ylmethoxy]-phenyl}-butan-1-one] showed an EC50 of less than 1000 nM.
With `CCCC(=O)c1ccc(NCc2n[nH]cc2Br)cc1` [Example 522] the EC50 was 1000 to 10000 nM.
